From patent US8440837B2, “2-substituted-ethynylthiazole derivatives and uses of same” (H. Lundbeck A/S, priority 2009, dated 2013)

Experiments:
[1] = molecular target: human metabotropic glutamate receptor 5 (hmGluR5); experiment: Calcium mobilization (FLIPR) assay, negative allosteric modulation of the EC80 glutamate response; type: cell-based; settings: HEK 293 cells, inhibition of EC80 glutamate response
Procedure: (§1) The cDNA for human metabotropic glutamate receptor 5 (hmGluR5) was a generous gift from S. Nakanishi (Kyoto University, Kyoto, Japan). The […] was stably expressed in a HEK 293 cell line and grown in Dulbecco's Modified Eagle Medium (DMEM) (Invitrogen, Carlsbad, Calif.) with supplements (10% bovine calf serum, 4 mM glutamine, 100 units/mL penicillin, 100 μg/mL streptomycin and […]) at 37° C., 5% CO2. Twenty-four hours prior to assay, cells were seeded into 384-well black wall microtiter plates coated with poly-D-lysine. Just prior to assay, media was aspirated and cells dye-loaded (25 μL/well) with 3 μM Fluo-4/0.01% pluronic acid in assay buffer (Hank's Balanced Saline Solution (HBSS)): 150 mM NaCl, 5 mM KCl, 1 mM CaCl2, 1 mM MgCl2, plus 20 mM N-2-Hydroxyethylpiperazine-N′-2-ethanesulfonic acid (HEPES), pH 7.4, 0.1% bovine serum albumin (BSA) and 2.5 mM probenicid) for 1 hour in 5% CO2 at 37° C. After excess dye was discarded, cells were washed in assay buffer and layered with a final volume equal to 30 μL/well. Basal fluorescence is monitored in a fluorometric imaging plate reader (FLIPR) (Molecular Devices, Sunnyvale, Calif.) with an excitation wavelength of 488 nm and an emission range of 500 to 560 nm. Laser excitation energy was adjusted so that basal fluorescence readings were approximately 10,000 relative fluorescent units. Cells were stimulated with an EC20 or an EC80 concentration of glutamate in the presence of a compound to be tested, both diluted in assay buffer, and relative fluorescent units were measured at defined intervals (exposure=0.6 sec) over a 3 min period at room temperature. Basal readings derived from negative controls were subtracted from all samples. Maximum change in fluorescence was calculated for each well. Concentration-response curves derived from the maximum change in fluorescence were analyzed by nonlinear regression (Hill equation).
A negative allosteric modulator (NAM) can be identified from these concentration-response curves if a compound produces a concentration dependent inhibition of the EC80 glutamate response.

[2] = molecular target: human metabotropic glutamate receptor 5 (hmGluR5) (UniProt P31424); experiment: Calcium mobilization (FLIPR) assay, positive allosteric modulation of the EC20 glutamate response; type: cell-based; settings: HEK 293 cells; for maximum modulation (Emax): EC20 glutamate response; for EC50: increase in EC20 glutamate response
Procedure: as §1
A silent allosteric modulator (SAM) can be identified by using a combination of both the calcium mobilization assay data and the radioligand binding data. As used herein, the term “silent allosteric modulator” refers to a ligand that binds to an allosteric site of the receptor but has no measurable intrinsic efficacy.

Row | IC50 [1] | maximum modulation (Emax) [2] | EC50 [2] | SMILES
1 | 36 nM | – | – | Cc1nc(C#Cc2ccccc2)sc1C(=O)NC1CCCC1 [Example 16, 4-Methyl-2-phenylethynyl-thiazole-5-carboxylic acid cyclopentylamide]
2 | 3.2 nM | – | – | O=C(c1cnc(C#Cc2ccccc2)s1)N1CC[C@H](F)C1 [Example 5, ((S)-3-Fluoro-pyrrolidin-1-yl)-(2-phenylethynyl-thiazol-5-yl)-methanone]
3 | 31 nM | – | – | O=C(c1cnc(C#Cc2ccccc2)s1)N1CCC(F)(F)C1 [Example 115, (3,3-Difluoro-pyrrolidin-1-yl)-(2-phenylethynyl-thiazol-5-yl)-methanone]
4 | 700 nM | – | – | CC(c1cnc(C#Cc2ccccc2)s1)N1CCCCC1 (centres unmarked) [Example 231, 1-[1-(2-Phenylethynyl-thiazol-5-yl)-ethyl]-piperidine]
5 | 29 nM | – | – | Cc1cccc(C#Cc2ncc(C(=O)N3CCCCC3)s2)n1 [Example 193, [2-(6-Methyl-pyridin-2-ylethynyl)-thiazol-5-yl]-piperidin-1-yl-methasone]
6 | 440 nM | – | – | O=C(c1cnc(C#Cc2ccccc2)s1)N1CC2CNCC2C1 (centres unmarked) [Example 173, (Hexahydro-pyrrolo[3,4-c]pyrrol-2-yl)-(2-phenylethynyl-thiazol-5-yl)-methasone]
7 | 7.1 nM | – | – | O=C(c1cnc(C#Cc2cccc(F)c2)s1)N1CCCC1 [Example 21, [2-(3-Fluoro-phenylethynyl)-thiazol-5-yl]-pyrrolidin-1-yl-methanone]
8 | 25 nM | – | – | CC(C)(C)OC(=O)N1CC2CN(C(=O)c3cnc(C#Cc4ccccc4)s3)CC2C1 (centres unmarked) [Example 171, 5-(2-Phenylethynyl-thiazole-5-carbonyl)-hexahydro-pyrrolo[3,4-c]pyrrole-2-carboxylic acid tert-butyl ester]
9 | 33 nM | – | – | COCC1CCCN(C(=O)c2cnc(C#Cc3ccccc3)s2)C1 (centres unmarked) [Example 123, (3-Methoxymethyl-piperidin-1-yl)-(2-phenylethynyl-thiazol-5-yl)-methanone]
10 | 360 nM | – | – | O=C(c1ccccc1)c1cnc(C#Cc2ccccc2)s1 [Example 237, Phenyl-(2-phenylethynyl-thiazol-5-yl)-methanone]
11 | 29 nM | – | – | O=C(c1cnc(C#Cc2ccccn2)s1)N1CCCCC1 [Example 191, Piperidin-1-yl-(2-pyridin-2-ylethynyl-thiazol-5-yl)-methanone]
12 | 53 nM | – | – | Cc1nc(C#Cc2ccccc2)sc1C(=O)N1CCCCC1 [Example 13, (4-Methyl-2-phenylethynyl-thiazol-5-yl)-piperidin-1-yl-methanone]
13 | 54 nM | – | – | O=C(c1cnc(C#Cc2ccccc2)s1)N1CC(F)(F)C1 [Example 114, (3,3-Difluoro-azetidin-1-yl)-(2-phenylethynyl-thiazol-5-yl)-methanone]
14 | 37 nM | – | – | O=C(c1cnc(C#Cc2ccccc2)s1)N1CC[C@@H](F)C1 [Example 6, ((R)-3-Fluoro-pyrrolidin-1-yl)-(2-phenylethynyl-thiazol-5-yl)-methanone]
15 | 20 nM | – | – | O=C(c1cnc(C#Cc2ccccn2)s1)N1CCCC1 [Example 198, (2-Pyridin-2-ylethynyl-thiazol-5-yl)-pyrrolidin-1-yl-methanone]
16 | 3.2 nM | – | – | O=C(c1cnc(C#Cc2ccccc2)s1)N1CCCC1 [Example 4, (2-Phenylethynyl-thiazol-5-yl)-pyrrolidin-1-yl-methanone]
17 | – | 110% | 33 nM | F[C@@H]1CCN(Cc2cnc(C#Cc3ccccc3)s2)C1 [Example 230, 5-((R)-3-Fluoro-pyrrolidin-1-ylmethyl)-2-phenylethynyl-thiazole]

Row | IC50 [1] | maximum modulation (Emax) [2] | EC50 [2] | SMILES
18 | – | 52% | 360 nM | O=C(c1cnc(C#Cc2ccccc2)s1)N1CCN(c2ccccc2)CC1 [Example 41, (2-Phenylethynyl-thiazol-5-yl)-(4-phenyl-piperazin-1-yl)-methanone]
19 | 140 nM | – | – | CC(O)(c1ccccc1)c1cnc(C#Cc2ccccc2)s1 (centres unmarked) [Example 240, 1-Phenyl-1-(2-phenylethynyl-thiazol-5-yl)-ethanol]
20 | – | 69% | 8.2 nM | O=C(c1cnc(C#Cc2ccccc2)s1)N1CC2CCC1C2 (centres unmarked) [Example 146, (2-Aza-bicyclo[2.2.1]hept-2-yl)-(2-phenylethynyl-thiazol-5-yl)-methanone]
21 | – | 110% | 1.8 nM | O=C(c1cnc(C#Cc2ccccc2)s1)N1CC2CCCC2C1 (centres unmarked) [Example 144, (Hexahydro-cyclopenta[c]pyrrol-2-yl)-(2-phenylethynyl-thiazol-5-yl)-methanone]
22 | – | 120% | 100 nM | O=C(c1cnc(C#Cc2ccccc2)s1)N1CCc2[nH]ncc2C1 [Example 77, (2-Phenylethynyl-thiazol-5-yl)-(1,4,6,7-tetrahydro-pyrazolo[4,3-c]pyridin-5-yl)-methanone]
23 | – | 130% | 97 nM | C(#Cc1ncc(CN2CCCCC2)s1)c1ccccc1 [Example 206, 1-(2-Phenylethynyl-thiazol-5-ylmethyl)-piperidine]
24 | – | 120% | 200 nM | O=C(c1cnc(C#Cc2ccccc2)s1)N1CCC2(CCCO2)CC1 [Example 78]
25 | – | 64% | 2200 nM | COc1ccc(C#Cc2ncc(C(=O)N3CCCCC3)s2)cc1 [Example 192, [2-(4-Methoxy-phenylethynyl)-thiazol-5-yl]-piperidin-1-yl-methasone]
26 | – | 45% | 12 nM | N#Cc1cccc(C#Cc2ncc(C(=O)N3CCCCC3)s2)c1 [Example 196, 3-[5-(Piperidine-1-carbonyl)-thiazol-2-ylethynyl]-benzonitrile]
27 | – | 150% | 4.3 nM | O=C(c1cnc(C#Cc2ccccc2)s1)N1CCC(F)(F)CC1 [Example 82, (4,4-Difluoro-piperidin-1-yl)-(2-phenylethynyl-thiazol-5-yl)-methanone]
28 | 0.7 nM | – | – | Cc1cccc(C#Cc2ncc(C(=O)NC3CCCC3)s2)c1 [Example 24, 2-m-Tolylethynyl-thiazole-5-carboxylic acid cyclopentylamide]
29 | – | 40% | 230 nM | O=C(c1cnc(C#Cc2ccccc2)s1)N1CC(N2CCOCC2)C1 [Example 132, (3-Morpholin-4-yl-azetidin-1-yl)-(2-phenylethynyl-thiazol-5-yl)-methanone]
30 | – | 150% | 1900 nM | O=C(c1cnc(C#Cc2ccccc2)s1)N1CC2(COC2)C1 [Example 167, (2-Oxa-6-aza-spiro[3.3]hept-6-yl)-(2-phenylethynyl-thiazol-5-yl)-methanone]
31 | – | 74% | 510 nM | CCN1CCN(C(=O)c2cnc(C#Cc3cccc(Cl)c3)s2)CC1 [Example 159, [2-(3-Chloro-phenylethynyl)-thiazol-5-yl]-(4-ethyl-piperazin-1-yl)-methanone]
32 | – | 46% | 140 nM | COC1CCCN(C(=O)c2cnc(C#Cc3ccccc3)s2)C1 (centres unmarked) [Example 119, (3-Methoxy-piperidin-1-yl)-(2-phenylethynyl-thiazol-5-yl)-methanone]
33 | – | 61% | 73 nM | CC1(O)CCCN(C(=O)c2cnc(C#Cc3ccccc3)s2)CC1 (centres unmarked) [Example 151, (4-Hydroxy-4-methyl-azepan-1-yl)-(2-phenylethynyl-thiazol-5-yl)-methanone]
34 | 27 nM | – | – | COC[C@@H]1CCCN1C(=O)c1cnc(C#Cc2ccccc2)s1 [Example 168, ((S)-2-Methoxymethyl-pyrrolidin-1-yl)-(2-phenylethynyl-thiazol-5-yl)-methanone]

Row | SMILES | IC50 [1] | maximum modulation (Emax) [2] | EC50 [2]
35 | O=C(c1cnc(C#Cc2ccccc2)s1)N1C2CCC1CC2 [Example 145, (7-Aza-bicyclo[2.2.1]hept-7-yl)-(2-phenylethynyl-thiazol-5-yl)-methanone] | 5 nM | – | –
